Reference: patent US4588722A, “N-(4-piperidinyl) bicyclic condensed 2-imidazolamine derivatives” (priority 1984, dated 1986)
Counter-ions that a name gives are not always drawn.

Test system: compound 48/80-induced lethality in rats
Assay: Protection of rats from compound 48/80-induced lethality
Assay type: in vivo, rat (male, inbred Wistar strain)
Details: Rattus norvegicus, 4 h, read-out: Compound 48/80 lethality test in rats-ED50
Description: PROTECTION OF RATS FROM COMPOUND 48/80-INDUCED LETHALITY
Compound 48/80, a mixture of oligomers obtained by condensation of 4-methoxy-N-methylbenzeneethanamine and formaldehyde has been described as a potent histamine releasing agent (Int. Arch. Allergy, 13, 336 (1958)). The protection from compound 48/80-induced lethal circulatory collapse appears to be a simple way of evaluating quantitatively the antihistaminic activity of test compounds. Male rats of an inbred Wistar strain, weighing 240-260 g were used in the experiment. After overnight starvation the rats were transferred to conditioned laboratories (temp.=21±1° C., relative humidity=65±5%). The rats were treated subcutaneously or orally with a test compound or with the solvent (NaCl solution, 0.9%). One hour after treatment there was injected intravenously compound 48/80, freshly dissolved in water, at a dose of 0.5 mg/kg (0.2 ml/100 g of body weight). In control experiments, wherein 250 solvent-treated animals were injected with the standard dose of compound 48/80, not more than 2.8% of the animals survived after 4 hours. Survival after 4 hours is therefore considered to be a safe criterion of a protective effect of drug administration.
Said ED50 -values are the values in mg/kg body weight at which the tested compounds protect 50% of the tested animals against compound 48/80-induced lethality.

Row | Structure (SMILES) | ED50 [mg/kg]
1 | N=C(NCCN1CCC(Nc2nc3ccccc3n2Cc2ccc(F)cc2)CC1)N[N+](=O)[O-] [Compound 23, N-[2-[4-[[1-[(4-fluorophenyl)methyl]-1H-benzimidazol-2-yl]amino]-1-piperidinyl]ethyl]-N'-nitroguanidine] | 0.08

Same assay, conditions: Rattus norvegicus; test compound subcutaneously or orally (route of each value not given) 1 hour before compound 48/80 0.5 mg/kg intravenously; dose protecting 50% of animals, survival after 4 hours; read-out: Compound 48/80 lethality test in rats-ED50

Row | Structure (SMILES) | ED50 [mg/kg]
2 | CNC(=O)N1CCC(N2CCC(Nc3nc4ccccc4n3Cc3ccc(F)cc3)CC2)CC1 [Compound 36, 4-[[1-(4-fluorophenyl)methyl]-1H-benzimidazol-2-ylamino]-N-methyl-[1,4'-bipiperidine]-1'-carboxamide monohydrate] | 0.16
3 | Fc1ccc(Cn2c(NC3CCN(CCNC(=S)N4CCOCC4)CC3)nc3ccccc32)cc1 [Compound 28, N-[2-[4-[[1-[(4-fluorophenyl)methyl]-1H-benzimidazol-2-yl]amino]-1-piperidinyl]ethyl]-4-morpholinecarbothioamide] | 0.16
4 | O.O=c1oc2ccccc2cc1CCN1CCC(Nc2nc3ccccc3n2Cc2cccnc2)CC1 [Compound 10, 3-[2-[4-[[1-(3-pyridinylmethyl)-1H-benzimidazol-2-yl]amino]-1-piperidinyl]ethyl]-2H-1-benzopyran-2-one monohydrate] | 0.31
5 | O.OCCCNC(=S)NCCN1CCC(Nc2nc3ccccc3n2Cc2ccc(F)cc2)CC1 [Compound 30, N-[2-[4-[[1-[(4-fluorophenyl)methyl]-1H-benzimidazol-2-yl]amino]-1-piperidinyl]ethyl]-N'(3-hydroxypropyl)thiourea monohydrate] | 0.08
6 | Fc1ccc(Cn2c(NC3CCN(Cc4ccc(CSCCNc5ncccn5)o4)CC3)nc3ccccc32)cc1 [Compound 50] | 0.16
7 | CCN(CC)C(=S)NCCN1CCC(Nc2nc3ccccc3n2Cc2ccc(F)cc2)CC1 [Compound 32, N,N-diethyl-N'-[2-[4-[[1-[(4-fluorophenyl)methyl]-1H-benzimidazol-2-yl]-amino]-1-piperidinyl]ethyl]thiourea] | 0.16
8 | O=c1oc2ccccc2cc1CCN1CCC(Nc2nc3ccccc3n2Cc2ccc(F)cc2)CC1 [Compound 12, 3-[2-[4-[[1-[(4-fluorophenyl)methyl]-1H-benzimidazol-2-yl]amino]-1-piperidinyl]ethyl]-2H-1-benzopyran-2-one] | 0.16
9 | O=c1oc2ccccc2cc1CCN1CCC(Nc2nc3ccccc3n2Cc2cccs2)CC1 [Compound 8, 3-[2-[4-[[1-(2-thienylmethyl)-1H-benzimidazol-2-yl]amino]-1-piperidinyl]ethyl]-2H-1-benzopyran-2-one] | 0.16
10 | Br.Br.Oc1ccc(CCN2CCC(Nc3nc4ccccc4n3Cc3cscn3)CC2)cc1 [Compound 59, 4-[2-[4-[[1-(4-thiazolylmethyl)-1H-benzimidazol-2-yl]amino]-1-piperidinyl]ethyl]phenol dihydrobromide] | 0.08
11 | O=c1oc2ccccc2cc1CCN1CCC(Nc2nc3cccnc3n2Cc2ccco2)CC1 [Compound 15, 3-[2-[4-[[3-(2-furanylmethyl)-3H-imidazo[4,5-b]pyridin-2-yl]amino]-1-piperidinyl]ethyl]-2H-1-benzopyran-2-one] | 0.01
12 | C=COCCN1CCC(Nc2nc3ccccc3n2Cc2ccc(F)cc2)CC1 [Compound 1, N-[1-[2-(ethenyloxy)ethyl]-4-piperidinyl]-1-(4-fluorophenylmethyl)-1H-benzimidazol-2-amine] | 0.08
13 | O=c1oc2ccccc2cc1CCN1CCC(Nc2nc3ccccc3n2Cc2ccccn2)CC1 [Compound 9, 3-[2-[4-[[1-(2-pyridinylmethyl)-1H-benzimidazol-2-yl]amino]-1-piperidinyl]ethyl]-2H-1-benzopyran-2-one dihydrochloride.dihydrate] | 0.08
14 | CS(=O)(=O)Nc1ccc(CCN2CCC(Nc3nc4ccccc4n3Cc3ccc(F)cc3)CC2)cc1 [Compound 53, N-4-[2-[4-[[1-[(4-fluorophenyl)methyl]-1H-benzimidazol-2-yl]amino]-1-piperidinyl]ethyl] methanesulfonamide monohydrate] | 0.16
15 | OCc1ccc(CN2CCC(Nc3nc4ccccc4n3Cc3ccc(F)cc3)CC2)o1 [Compound 47, 5-[[4-[[1-[(4-fluorophenyl)methyl]-1H-benzimdazol-2-yl]amino]-1-piperidinyl]methyl]-2-furanmethanol] | 0.08
16 | COC(CNC(=NC#N)NCCN1CCC(Nc2nc3ccccc3n2Cc2ccc(F)cc2)CC1)OC.O=C(O)/C=C/C(=O)O.O=C(O)/C=C/C(=O)O [Compound 24, N"-cyano-N-(2,2-dimethoxyethyl)-N'-[2-[4-[[1-[(4-fluorophenyl)methyl]-1H-benzimidazol-2-yl]amino]-1-piperidinyl]ethyl]guanidine (E)-2-butenedioate(1:2)] | 0.16
17 | O=c1cc[nH]c(=O)n1CCN1CCC(Nc2nc3ccccc3n2Cc2ccc(F)cc2)CC1 [Compound 5, 3-[2-[4-[[1-[(4-fluorophenyl)methyl]-1H-benzimidazol-2-yl]amino]-1-piperidinyl]ethyl]-2,4-(1H,3H)-pyrimidinedione] | 0.08

Row | Structure (SMILES) | ED50 [mg/kg]
18 | CNC(=S)N1CCCC(N2CCC(Nc3nc4ccccc4n3Cc3ccc(F)cc3)CC2)C1 (centres unmarked) [Compound 37, 4-[[1-[(4-fluorophenyl)methyl]-1H-benzimidazol-2-yl]amino]-N-methyl-[1,3'-bipiperidine]-1'-carbothioamide] | 0.08
19 | O.O=c1oc2ccccc2cc1CCN1CCC(Nc2nc3cccnc3n2Cc2ccc(F)cc2)CC1 [Compound 16, 3-[2-[4-[[3-[(4-fluorophenyl)methyl]-3H-imidazo [4,5-b]pyridin-2-yl]-amino]-1-piperidinyl]ethyl]-2H-1-benzopyran-2-one monohydrate] | 0.04
20 | N#CN=C(NCCN1CCOCC1)NCCN1CCC(Nc2nc3ccccc3n2Cc2ccc(F)cc2)CC1 [Compound 26, N"-cyano-N-[2-[4-[[1-[(4-fluorophenyl)methyl]-1H-benzimidazol-2-yl]-aminol]-1-piperidinyl]ethyl]-N'-[2-(4-morpholinyl)ethyl]guanidine monohydrate] | 0.16
21 | CSC(=NC#N)NCCN1CCC(Nc2nc3cccnc3n2Cc2ccc(F)cc2)CC1 [Compound 21, S-methyl N'-cyano-N-[2-[4-[[3-[(4-fluorophenyl)methyl]-3H-imidazo[4,5-b]pyridin-2-yl]amino]-1-piperidinyl]ethyl]carbamimidothioate] | 0.16
22 | COc1ccc(CCN2CCC(Nc3nc4ccccc4n3Cc3cscn3)CC2)cc1 [Compound 17, N-[1-[2-(4-methoxyphenyl)ethyl]-4-piperidinyl]-1-(4-thiazolyl)-methyl)-1H-benzimidazol-2-amine dihydrobromide. dihydrate] | 0.08
23 | Fc1ccc(Cn2c(NC3CCN(CCNC(=S)Nc4ccccc4)CC3)nc3ccccc32)cc1 [Compound 40, N-[2-[4-[[1-[(4-fluorophenyl)methyl]-1H-benzimidazol-2-yl]amino]-1-piperidinyl]ethyl]-N'phenylthiourea] | 0.16
24 | CCOC(=S)NCCN1CCC(Nc2nc3ccccc3n2Cc2ccc(F)cc2)CC1 [Compound 35, ethyl [2-[4-[[1-[(4-fluorophenyl)-methyl]-1H-benzimidazol-2-yl]amino]-1-piperidinyl]ethyl]carbamothioate] | 0.16
25 | O=CNCCN1CCC(Nc2nc3ccccc3n2Cc2ccc(F)cc2)CC1 [Compound 45, N-[2-[4-[[1-[(4-fluorophenyl)methyl]-1H-benzimidazol-2-yl]amino]-1-piperidinyl]ethyl]formamide] | 0.08
26 | COc1ccc(CCN2CCC(Nc3nc4cnccc4n3Cc3ccc(F)cc3)CC2)cc1 [Compound 3, 1-[(4-fluorophenyl)methyl]-N-[1-[2-(4-methoxyphenyl)ethyl]-4-piperidinyl]-1H-imidazo[4,5-c]pyridin-2-amine] | 0.16
27 | CN(C)C(=S)NCCN1CCC(Nc2nc3ccccc3n2Cc2ccc(F)cc2)CC1 [Compound 31] | 0.08
28 | Cc1nccn1CCN1CCC(Nc2nc3ccccc3n2Cc2ccc(F)cc2)CC1 [Compound 20, 1-[(4-fluorophenyl)methyl]-N-[1-[2-(2-methyl-1H-imidazol-1-yl)ethyl]-4-piperidinyl]-1H-benzimidazol-2-amine] | 0.31
29 | COc1ccc(CCN2CCC(Nc3nc4ccccc4n3Cc3cnccn3)CC2)cc1 [Compound 13, N-[1-[2:(4-methoxyphenyl)ethyl]-4-piperidinyl]-1-[(2-pyrazinyl)methyl]-1H-benzimidazol-2-amine] | 0.04
30 | CN(C)C(=NC#N)NCCN1CCC(Nc2nc3ccccc3n2Cc2ccc(F)cc2)CC1 [Compound 25] | 0.08
31 | O=c1oc2ccccc2cc1CCN1CCC(Nc2nc3ccccc3n2Cc2cscn2)CC1 [Compound 6, 3-[2-[4-[[1-(4-thiazolylmethyl)-1H-benzimidazol-2-yl]amino]-1-piperidinyl]ethyl]-2H-1-benzopyran-2-one dihydrochloride.sesquihydrate] | 0.16
32 | CNC(=O)Nc1ccc(CCN2CCC(Nc3nc4ccccc4n3Cc3ccc(F)cc3)CC2)cc1 [Compound 57, N-[4-[2-[4-[[1-[(4-fluorophenyl)methyl]-1H-benzimidazol-2-yl]amino]-1-piperidinyl]ethyl]phenyl]-N'methylurea] | 0.08
